Measured values as given in patent US8461181B2, “Fused heterocyclic compound and use thereof” (Sumitomo Chemical Company, Ltd., priority 2009, dated 2013).

Legend:
Type in all cases: in vivo
Aphis gossypii [1] = assay: Test Example 4: foot drench of cucumber seedling in plastic cup, inoculation after 7 days, Aphis gossypii; settings: soil, 144 h, 5 ml drench at foot of cucumber seedling in plastic cup, kept 7 days at 25° C., inoculated, further 6 days
Protocol: The formulations of the present active compounds (3) to (7), (17), (19), (20), (22), (29) to (31), (35) to (37), (39), (41) to (45), (47) to (56), (101), (106), (121) to (123), (128), (131), (137), (139), (143), (145), (147), (211) to (213), (216) and (217) obtained by Formulation Example 5 were diluted with water so that the active ingredient concentration was 500 ppm, to prepare diluted solutions for test. Separately, a cucumber seedling (second true leaf spreading stage) planted on a plastic cup was drenched at its foot with each 5 ml of the diluted solutions, and kept in a greenhouse of 25° C. for 7 days. The cucumber leaf surface was inoculated with 30 Aphis gossypii (whole stage), and further kept in the greenhouse for 6 days, then, the number of insect of living Aphis gossypii […] on the leaves of this cucumber was checked, and the control value was calculated according to the following formula. Control value (%)={1-(Cb×Tai)/(Cai×Tb)}×100 Letters in the formula represent the following meanings. Cb: the number of insect before treatment on non-treated district Cai: the number of insect in observation on non-treated district Tb: the number of insect before treatment on treated district Tai: the number of insect in observation on treated district

Nilaparvata lugens [2] = assay: Test Example 9: foot drench of rice seedling, twenty first instar larvae of Nilaparvata lugens; settings: soil, 144 h, 5 ml drench at foot of rice seedling, kept 7 days, twenty first instar larvae released, further 6 days
Protocol: The formulations of the present active compounds (6), (7), (18), (22), (25), (30), (33), (46), (47), (53), (101) to (103), (106), (121) to (124), (126) to (128), (135), (139), (216) and (217) obtained by Formulation Example 5 were diluted with water so that the active ingredient concentration was 500 ppm, to prepare diluted solutions for test. Separately, a rice seedling (2 weeks after sowing, second leaf spreading stage) planted on a plastic cup was drenched at its foot with each 5 ml of the diluted solutions, and kept in a greenhouse of 25° C. for 7 days. Twenty first instar larvae of Nilaparvata lugens were released, and further kept in the greenhouse for 6 days, then, the number of insect of living Nilaparvata lugens […] on rice was checked, and the control value was calculated according to the following formula. Control value (%)={1-(Cb×Tai)/(Cai×Tb)}×100 Letters in the formula represent the following meanings. Cb: the number of insect before treatment on non-treated district Cai: the number of insect in observation on non-treated district Tb: the number of insect before treatment on treated district Tai: the number of insect in observation on treated district

Nilaparvata lugens [3] = assay: Test Example 8: spray on rice seedling, 20 first instar larvae of Nilaparvata lugens; settings: 144 h, 10 ml sprayed on rice seedling, 20 first instar larvae released, 6 days at 25° C.
Protocol: The formulations of the present active compounds (6), (7), (18), (21), (24), (25), (28) to (30), (32), (46), (52), (101) to (103), (105) to (107), (111), (112), (115), (119) to (124), (126) to (130), (133) to (135), (139), (142), (144) to (146), (149) to (151), (153), (154), (216) and (217) obtained by Formulation Example 5 were diluted with water so that the active ingredient concentration was 500 ppm, to prepare spray solutions for test. Separately, on a rice seedling (2 weeks after sowing, second leaf spreading stage) planted on a plastic cup, the drug solutions for test prepared as described above were sprayed each in an amount of 10 ml. After drying of the drug solution sprayed on rice, 20 first instar larvae of Nilaparvata lugens were released, and kept in a greenhouse of 25° C. for 6 days. Thereafter, the number of Nilaparvata lugens […] on rice was checked, and the control value was calculated according to the following formula. Control value (%)={1-(Cb×Tai)/(Cai×Tb)}×100 Letters in the formula represent the following meanings. Cb: the number of insect before treatment on non-treated district Cai: the number of insect in observation on non-treated district Tb: the number of insect before treatment on treated district Tai: the number of insect in observation on treated district

Aphis gossypii [4] = assay: Test Example 3: root immersion of cucumber seedling, Aphis gossypii; settings: 168 h, cucumber root part immersed in 5 ml, inoculated one day after treatment, checked seven days after
Protocol: The formulations of the present active compounds (18), (19), (21), (22), (24), (25), (28), (31) to (34), (46), (47), (52), (53), (101) to (104), (106) to (108), (112) to (114), (117), (118), (122), (123), (126), (128), (129), (133), (134), (138), (144), (153) to (155) and (157) obtained by Formulation Example 5 were diluted with water so that the active ingredient concentration was 500 ppm, to prepare diluted solutions for test. A root part of a cucumber seedling (first true leaf spreading stage) from which soil had been washed off was immersed in 5 ml of this diluted solution, and one day after treatment, the cucumber leaf surface was inoculated with 30 Aphis gossypii (whole stage). Further seven days after, the number of insect of living Aphis gossypii […] on the leaves of this cucumber was checked, and the control value was calculated according to the following formula. Control value (%)={1-(Cb×Tai)/(Cai×Tb)}×100 Letters in the formula represent the following meanings. Cb: the number of insect before treatment on non-treated district Cai: the number of insect in observation on non-treated district Tb: the number of insect before treatment on treated district Tai: the number of insect in observation on treated district

Aphis gossypii [5] = assay: Test Example 2: foot drench of cucumber seedling on urethane mat, Aphis gossypii; settings: soil, 168 h, 5 ml drench at foot of cucumber seedling on urethane mat, inoculated one day after treatment, checked seven days after
Protocol: The formulations of the present active compounds (4), (5), (8), (9), (11), (12), (14), (15), (17), (20), (35) to (45), (48) to (51), (54) to (56), (206), (209) and (211) to (213) obtained by Formulation Example 5 were diluted with water so that the active ingredient concentration was 500 ppm, to prepare diluted solutions for test. Separately, a cucumber seedling (second true leaf spreading stage) planted on a urethane mat was drenched at its foot with each 5 ml of the diluted solutions, and one day after treatment, the cucumber leaf surface was inoculated with 30 Aphis gossypii (whole stage). Further seven days after, the number of insect of living Aphis gossypii […] on the leaves of this cucumber was checked, and the control value was calculated according to the following formula. Control value (%)={1-(Cb×Tai)/(Cai×Tb)}×100 Letters in the formula represent the following meanings. Cb: the number of insect before treatment on non-treated district Cai: the number of insect in observation on non-treated district Tb: the number of insect before treatment on treated district Tai: the number of insect in observation on treated district

SMILES | pest or weed control at 500 ppm (Aphis gossypii [1]) [%] | pest or weed control at 500 ppm (Nilaparvata lugens [2]) [%] | pest or weed control at 500 ppm (Nilaparvata lugens [3]) [%] | pest or weed control at 500 ppm (Aphis gossypii [4]) [%] | pest or weed control at 500 ppm (Aphis gossypii [5]) [%]
CCc1cnccc1-c1nc2cc(C(F)(F)F)cnc2n1C [present active compound 217, 2-(3-ethylpyridin-4-yl-)-3-methyl-6-trifluoromethyl-3H-imidazo[4,5-b]pyridine] | ≥ 90 | ≥ 90 | ≥ 90 |  | 
Cc1cnccc1-c1nc2cc(C(F)(F)F)cnc2n1C [present active compound 216, 3-methyl-2-(3-methylpyridin-4-yl-)-6-trifluoromethyl-3H-imidazo[4,5-b]pyridine] | ≥ 90 | ≥ 90 | ≥ 90 |  | 
CCc1cnccc1-c1nc2cc(C(F)(F)F)ccc2n1C [present active compound 7, 2-(3-ethylpyridin-4-yl)-1-methyl-5-trifluoromethyl-1H-benzimidazole] |  | ≥ 90 | ≥ 90 |  | 
Cn1c(-c2ccncc2[S+](C)[O-])nc2cc(C(F)(F)F)ccc21 (stereo not drawn) [present active compound 18, 2-(3-methanesulfinylpyridin-4-yl)-1-methyl-5-trifluoromethyl-1H-benzimidazole] |  | ≥ 90 | ≥ 90 | ≥ 90 | 
Cn1c(-c2ccncc2Cl)nc2cc(C(F)(F)F)ccc21 [present active compound 5, 2-(3-chloropyridin-4-yl)-1-methyl-5-trifluoromethyl-1H-benzimidazole] |  |  |  |  | ≥ 90
CN(C)C(=O)c1cnccc1-c1nc2cc(C(F)(F)F)cnc2n1C [present active compound 139] | ≥ 90 | ≥ 90 | ≥ 90 |  | 
Cn1c(-c2ccncc2OC(C)(C)C)nc2cc(C(F)(F)F)ccc21 [present active compound 12, 2-(3-tert-butoxypyridin-4-yl)-1-methyl-5-trifluoromethyl-1H-benzimidazole] |  |  |  |  | ≥ 90
Cn1c(-c2ccncc2OCCF)nc2cc(C(F)(F)F)ccc21 [present active compound 15, 2-[3-(2-fluoroethoxy)-pyridin-4-yl]-1-methyl-5-trifluoromethyl-1H-benzimidazole] |  |  |  |  | ≥ 90
Cc1cnccc1-c1nc2cc(C(F)(F)F)ccc2n1C [present active compound 6, 1-methyl-2-(3-methylpyridin-4-yl)-5-trifluoromethyl-1H-benzimidazole] |  | ≥ 90 | ≥ 90 |  | 
CCOc1cnccc1-c1nc2cc(C(F)(F)F)ccc2n1C [present active compound 9, 2-(3-ethoxypyridin-4-yl)-1-methyl-5-trifluoromethyl-1H-benzimidazole] |  |  |  |  | ≥ 90
Cn1c(-c2ccncc2F)nc2cc(C(F)(F)F)ccc21 [present active compound 4, 2-(3-fluoropyridin-4-yl)-1-methyl-5-trifluoromethyl-1H-benzimidazole] |  |  |  |  | ≥ 90
COCCOc1cnccc1-c1nc2cc(C(F)(F)F)cnc2n1C [present active compound 46, 2-[3-(2-methoxyethoxy)-pyridin-4-yl]-3-methyl-6-trifluoromethyl-3H-imidazo[4,5-b]pyridine] |  | ≥ 90 | ≥ 90 | ≥ 90 | 
Cn1c(-c2ccncc2OCC(F)F)nc2cc(C(F)(F)F)ccc21 [present active compound 14, 2-[3-(2,2-difluoroethoxy)-pyridin-4-yl]-1-methyl-5-trifluoromethyl-1H-benzimidazole] |  |  |  |  | ≥ 90
CCS(=O)(=O)c1cnccc1-c1nc2cc(C(F)(F)F)ccc2n1C [present active compound 22, 2-(3-ethanesulfonylpyridin-4-yl)-1-methyl-5-trifluoromethyl-1H-benzimidazole] | ≥ 90 | ≥ 90 |  | ≥ 90 | 
COc1cnccc1-c1nc2cc(C(F)(F)F)ccc2n1C [present active compound 8, 2-(3-methoxypyridin-4-yl)-1-methyl-5-trifluoromethyl-1H-benzimidazole] |  |  |  |  | ≥ 90
CCOCCOc1cnccc1-c1nc2cc(C(F)(F)F)cnc2n1C [present active compound 47, 2-[3-(2-ethoxyethoxy)-pyridin-4-yl]-3-methyl-6-trifluoromethyl-3H-imidazo[4,5-b]pyridine] |  | ≥ 90 |  | ≥ 90 | 
CCSc1cnccc1-c1nc2cc(C(F)(F)F)ccc2n1C [present active compound 20, 2-(3-ethylthiopyridin-4-yl)-1-methyl-5-trifluoromethyl-1H-benzimidazole] | ≥ 90 |  |  |  | ≥ 90
